Data from the NIST ThermoML archive (doi:10.1016/j.fluid.2009.01.011).
Numbers after ± are expanded uncertainties.

Test: activity coefficient (dimensionless); of the first substance listed, at infinite dilution; xn = mol fraction of the nth substance listed
Settings: Liquid, Chromatography, x1 = 0

Compound | activity coefficient (308.15 K) | activity coefficient (318.15 K) | activity coefficient (328.15 K) | activity coefficient (338.15 K) | activity coefficient (348.15 K) | activity coefficient (358.15 K) | activity coefficient (368.15 K) | activity coefficient (298.15 K)
Cc1ccccc1C [1,2-dimethylbenzene] + CCCC[N+]1(C)CCCC1.O=S(=O)([O-])C(F)(F)F | 2.91 ± 0.13 | 2.93 ± 0.13 | 2.95 ± 0.13 | 2.97 ± 0.13 | 2.99 ± 0.13 | 3.01 ± 0.13 | 3.03 ± 0.13 | 
Cc1cccc(C)c1 [1,3-dimethylbenzene] + CCCC[N+]1(C)CCCC1.O=S(=O)([O-])C(F)(F)F | 3.44 ± 0.15 | 3.45 ± 0.15 | 3.47 ± 0.15 | 3.48 ± 0.15 | 3.5 ± 0.15 | 3.51 ± 0.15 | 3.53 ± 0.16 | 
Cc1ccc(C)cc1 [1,4-dimethylbenzene] + CCCC[N+]1(C)CCCC1.O=S(=O)([O-])C(F)(F)F | 3.32 ± 0.15 | 3.35 ± 0.15 | 3.38 ± 0.15 | 3.4 ± 0.15 | 3.43 ± 0.15 | 3.45 ± 0.15 | 3.48 ± 0.15 | 
C=CCCCCC [1-heptene] + CCCC[N+]1(C)CCCC1.O=S(=O)([O-])C(F)(F)F | 27.5 ± 1.2 | 26.1 ± 1.2 | 24.8 ± 1.1 | 23.6 ± 1 | 22.6 ± 1 | 21.6 ± 1 | 20.8 ± 0.9 | 29 ± 1.3
C#CCCCCC [1-heptyne] + CCCC[N+]1(C)CCCC1.O=S(=O)([O-])C(F)(F)F | 5.3 ± 0.23 | 5.39 ± 0.24 | 5.47 ± 0.24 | 5.56 ± 0.25 | 5.64 ± 0.25 | 5.7 ± 0.25 | 5.78 ± 0.25 | 5.21 ± 0.23
C#CCCCC [1-hexyne] + CCCC[N+]1(C)CCCC1.O=S(=O)([O-])C(F)(F)F | 3.66 ± 0.16 | 3.76 ± 0.17 | 3.85 ± 0.17 | 3.94 ± 0.17 | 4.02 ± 0.18 | 4.09 ± 0.18 | 4.18 ± 0.18 | 3.57 ± 0.16
C#CCCCCCC [1-octyne] + CCCC[N+]1(C)CCCC1.O=S(=O)([O-])C(F)(F)F | 7.63 ± 0.34 | 7.7 ± 0.34 | 7.76 ± 0.34 | 7.83 ± 0.35 | 7.88 ± 0.35 | 7.94 ± 0.35 | 7.99 ± 0.35 | 7.56 ± 0.33
C=CCCC [1-pentene] + CCCC[N+]1(C)CCCC1.O=S(=O)([O-])C(F)(F)F | 16.3 ± 0.7 | 15.3 ± 0.7 | 14.4 ± 0.6 | 13.5 ± 0.6 | 12.8 ± 0.6 | 12.2 ± 0.5 |  | 17.6 ± 0.8
C#CCCC [1-pentyne] + CCCC[N+]1(C)CCCC1.O=S(=O)([O-])C(F)(F)F | 2.66 ± 0.12 | 2.74 ± 0.12 | 2.82 ± 0.12 | 2.88 ± 0.13 | 2.95 ± 0.13 | 3.01 ± 0.13 | 3.08 ± 0.14 | 2.59 ± 0.11
COC(C)(C)C [2-methoxy-2-methylpropane] + CCCC[N+]1(C)CCCC1.O=S(=O)([O-])C(F)(F)F | 5.65 ± 0.25 | 5.64 ± 0.25 | 5.63 ± 0.25 | 5.62 ± 0.25 | 5.6 ± 0.25 | 5.59 ± 0.25 | 5.58 ± 0.25 | 5.67 ± 0.25

The next lines start with the values.

activity coefficient (308.15 K) | activity coefficient (318.15 K) | activity coefficient (328.15 K) | activity coefficient (338.15 K) | activity coefficient (348.15 K) | activity coefficient (358.15 K) | activity coefficient (368.15 K) | activity coefficient (298.15 K) | Compound
1.44 ± 0.06 | 1.46 ± 0.06 | 1.48 ± 0.06 | 1.5 ± 0.06 | 1.53 ± 0.06 | 1.54 ± 0.06 | 1.56 ± 0.06 | 1.41 ± 0.06 | c1ccccc1 [benzene] + CCCC[N+]1(C)CCCC1.O=S(=O)([O-])C(F)(F)F
 |  | 1.49 ± 0.06 | 1.42 ± 0.06 | 1.35 ± 0.05 | 1.29 ± 0.05 | 1.24 ± 0.05 |  | CCCCO [butan-1-ol] + CCCC[N+]1(C)CCCC1.O=S(=O)([O-])C(F)(F)F
27 ± 1.2 | 24.9 ± 1.1 | 23.1 ± 1 | 21.6 ± 1 | 20.1 ± 0.9 | 18.9 ± 0.8 | 17.9 ± 0.8 | 29.3 ± 1.3 | C1CCCCCC1 [cycloheptane] + CCCC[N+]1(C)CCCC1.O=S(=O)([O-])C(F)(F)F
23.4 ± 1 | 21.4 ± 1 | 19.7 ± 0.9 | 18.1 ± 0.8 | 16.8 ± 0.7 | 15.6 ± 0.7 | 14.6 ± 0.6 | 25.7 ± 1.1 | C1CCCCC1 [cyclohexane] + CCCC[N+]1(C)CCCC1.O=S(=O)([O-])C(F)(F)F
34 ± 1.5 | 31.4 ± 1.4 | 29.1 ± 1.3 | 26.9 ± 1.2 | 25.1 ± 1.1 | 23.5 ± 1 | 22.2 ± 1 | 37.4 ± 1.7 | C1CCCCCCC1 [cyclooctane] + CCCC[N+]1(C)CCCC1.O=S(=O)([O-])C(F)(F)F
17.4 ± 0.8 | 15.9 ± 0.7 | 14.6 ± 0.6 | 13.5 ± 0.6 | 12.6 ± 0.6 | 11.7 ± 0.5 | 11 ± 0.5 | 19.2 ± 0.9 | C1CCCC1 [cyclopentane] + CCCC[N+]1(C)CCCC1.O=S(=O)([O-])C(F)(F)F
174 ± 8 | 157 ± 7 | 143 ± 6 | 130 ± 6 | 120 ± 5 | 110 ± 5 | 101 ± 5 | 195 ± 9 | CCCCCCCCCC [decane] + CCCC[N+]1(C)CCCC1.O=S(=O)([O-])C(F)(F)F
1 ± 0.04 | 0.948 ± 0.034 | 0.9 ± 0.033 | 0.862 ± 0.032 | 0.827 ± 0.032 | 0.791 ± 0.031 | 0.763 ± 0.031 | 1.05 ± 0.04 | CCO [ethanol] + CCCC[N+]1(C)CCCC1.O=S(=O)([O-])C(F)(F)F
3.45 ± 0.15 | 3.46 ± 0.15 | 3.48 ± 0.15 | 3.5 ± 0.15 | 3.51 ± 0.15 | 3.53 ± 0.16 | 3.54 ± 0.16 | 3.43 ± 0.15 | CCc1ccccc1 [ethylbenzene] + CCCC[N+]1(C)CCCC1.O=S(=O)([O-])C(F)(F)F
64.7 ± 2.9 | 59.3 ± 2.6 | 54.2 ± 2.4 | 50.4 ± 2.2 | 46.7 ± 2.1 | 43.3 ± 1.9 | 40.8 ± 1.8 | 71.5 ± 3.2 | CCCCCCC [heptane] + CCCC[N+]1(C)CCCC1.O=S(=O)([O-])C(F)(F)F
20.2 ± 0.9 | 19.2 ± 0.9 | 18.1 ± 0.8 | 17.3 ± 0.8 | 16.4 ± 0.7 | 15.7 ± 0.7 | 15 ± 0.7 | 21.6 ± 1 | C=CCCCC [hex-1-ene] + CCCC[N+]1(C)CCCC1.O=S(=O)([O-])C(F)(F)F
50.6 ± 2.3 | 46.4 ± 2.1 | 42.2 ± 1.9 | 38.8 ± 1.7 | 35.8 ± 1.6 | 33.3 ± 1.5 | 31.3 ± 1.4 | 55.8 ± 2.5 | CCCCCC [hexane] + CCCC[N+]1(C)CCCC1.O=S(=O)([O-])C(F)(F)F
